The values that follow come from US20080194616A1, “PYRIDOPYRIMIDINONE COMPOUNDS USEFUL IN TREATING SODIUM CHANNEL-MEDIATED DISEASES OR CONDITIONS” (Xenon Pharmaceuticals Inc., priority 2007, published 2008).

Counter-ions that a name gives are not always drawn.

Usually melting point stands for the temperature, or range, at which the solid turns liquid. The IC50 is the midpoint of a concentration-inhibition curve.

Data set [1] deals with sodium channel. Put plainly: Guanidine Influx Assay (In Vitro Assay). It is filed as cell-based, human or rat. To be noted: known cell line that expresses a sodium channel; read-out: IC50 Activity Level. The source says:
This example describes an in vitro assay for testing and profiling test agents against human or rat sodium channels stably expressed in cells of either an endogenous or recombinant origin. The assay is also useful for determining the IC-50 of a sodium channel blocking compound. The assay is based on the guanidine flux assay described by Reddy, N. L., et al., J. Med. Chem. (1998), 41(17):3298-302.
The guanidine influx assay is a radiotracer flux assay used to determine ion flux activity of sodium channels in a high-throughput microplate-based format. The assay uses ^14C-guanidine hydrochloride in combination with various known sodium channel modulators, to assay the potency of test agents. Potency is determined by an IC-50 calculation. Selectivity is determined by comparing potency of the compound for the channel of interest to its potency against other sodium channels (also called ‘selectivity profiling’).
Each of the test agents is assayed against cells that express the channels of interest. Voltage gated sodium channels are either TTX sensitive or insensitive. This property is useful when evaluating the activities of a channel of interest when it resides in a mixed population with other sodium channels. The following Table 1 summarizes cell lines useful in screening for a certain channel activity in the presence or absence of TTX.
Cells expressing the channel of interest are grown according to the supplier or in the case of a recombinant cell in the presence of selective growth media such as G418 (Gibco/Invitrogen). The cells are disassociated from the culture dishes with an enzymatic solution (1×) Trypsin/EDTA (Gibco/Invitrogen) and analyzed for density and viability using haemocytometer (Neubauer). Disassociated cells are washed and resuspended in their culture media then plated into Scintiplates (Beckman Coulter Inc.) (approximately 100,000 cells/well) and incubated at 37° C./5% CO2. for 20-24 hours. After an extensive wash with Low sodium HEPES-buffered saline solution (LNHBSS) (150 mM Choline Chloride, […] (Sigma), 1 mM Calcium Chloride, 5 mM Potassium Chloride, 1 mM Magnesium Chloride, 10 mM Glucose) agents diluted with LNHBSS are added to each well. (Varying concentrations of test agent may be used). The activation/radiolabel mixture contains aconitine (Sigma), and ^14C-guanidine hydrochloride (ARC).
After loading the cells with test agent and activation/radiolabel mixture, the Scintiplates are incubated at ambient temperature. Following the incubation, the Scintplates are extensively washed with LNHBSS supplemented with guanidine (Sigma). The Scintiplates are dried and then counted using a Wallac MicroBeta TriLux (Perkin-Elmer Life Sciences). The ability of the test agent to block sodium channel activity is determined by comparing the amount of ^14C-guanidine present inside the cells expressing the different sodium channels.
IC-50 value of a test agent for a specific sodium channel may be determined using the above general method. IC-50 may be determined using a 3,8,10,12 or 16 point curve in duplicate or triplicate with a starting concentration of 1, 5 or 10 μM diluted serially with a final concentration reaching the sub-nanomolar, nanomolar and low micromolar ranges. Typically the mid-point concentration of test agent is set at 1 μM, and sequential concentrations of half dilutions greater or smaller are applied (e.g. 0.5 μM; […] and 0.25 μM; 10 μM and 0.125 μM; 20 μM etc.). The IC-50 curve is calculated using the 4 Parameter Logistic Model or Sigmoidal Dose-Response Model formula (fit=(A+((B−A)/(1+((C/x)̂D)))).

Molecule `CC(C)c1nc2ccccn2c(=O)c1-c1ccc(N[C@@H]2CCN(C(=O)OC(C)(C)C)C2)cc1` (stereo in doubt) [Example 3.6, tert-butyl 3-({4-[2-(1-methylethyl)-4-oxo-4H-pyrido[1,2-a]pyrimidin-3-yl]phenyl}amino)pyrrolidine-1-carboxylate] returned a melting point of 232 to 236 °C. In addition, the half-inhibitory concentration (IC50) in data set [1] was at least 10 µM.
The molecule `CC(C)c1nc2ccccn2c(=O)c1-c1ccc(Cl)cc1` [Example 1.5, 3-(4-chlorophenyl)-2-(1-methylethyl)-4H-pyrido[1,2-a]pyrimidin-4-one] had a melting point of 98 to 100 °C. In data set [1], the IC50 was at least 10 µM.
For `CCCCc1nc2ccccn2c(=O)c1-c1ccc(N)cc1` [Example 1.14, 2-butyl-3-(4-aminophenyl)-4H-pyrido[1,2-a]pyrimidin-4-one], in that order: 95 to 97 °C and 0.1 to 1 µM.
For `CCCCc1nc2ccccn2c(=O)c1-c1ccc(NC(=O)OC(C)(C)C)cc1` [Example 1.15, tert-butyl 4-(2-butyl-4-oxo-4H-pyrido[1,2-a]pyrimidin-3-yl)phenylcarbamate], in that order: 132 to 135 °C and at least 10 µM.
For `COc1nc2ccccn2c(=O)c1-c1ccc(Cl)cc1` [Example 1.24, 3-(4-chlorophenyl)-2-methoxy-4H-pyrido[1,2-a]pyrimidin-4-one], in that order: 149 to 151 °C and at least 10 µM.
As for `CCCCc1nc2ccccn2c(=O)c1-c1ccc(N[C@@H]2CCN(C(=O)OC(C)(C)C)C2)cc1C` [Example 3.10, (R)-tert-butyl 3-{[4-(2-butyl-4-oxo-4H-pyrido[1,2-a]pyrimidin-3-yl)-3-methylphenyl]amino}pyrrolidine-1-carboxylate], the melting point was 162 to 168 °C. Further, the IC50 in data set [1] is at least 10 µM.
In the case of `COc1nc2ccccn2c(=O)c1-c1ccc(NC2CCN(C(=O)OC(C)(C)C)C2)cc1` (centres unmarked) [Example 3.19, tert-butyl 3-{[4-(2-methoxy-4-oxo-4H-pyrido[1,2-a]pyrimidin-3-yl)phenyl]amino}pyrrolidine-1-carboxylate], the melting point is 102 to 104 °C. The half-inhibitory concentration (IC50) in data set [1] was at least 10 µM.
For `CCCNc1nc2ccccn2c(=O)c1-c1ccc(NC2CCN(C(=O)OC(C)(C)C)C2)cc1` (centres unmarked) [Example 3.21, tert-butyl 3-({4-[4-oxo-2-(propylamino)-4H-pyrido[1,2-a]pyrimidin-3-yl]phenyl}amino)pyrrolidine-1-carboxylate], in that order: 187 to 190 °C and at least 10 µM.
On to `CCCCc1nc2ccccn2c(=O)c1-c1ccc(NC2CCNC2)cc1` (centres unmarked) [Example 7, 2-butyl-3-(4-(pyrrolidin-3-ylamino)phenyl)-4H-pyrido[1,2-a]pyrimidin-4-one hydrochloride], for which the IC50 in data set [1] is at least 10 µM.
On the same count and under the same terms, the figure for `CCCCc1nc2ccccn2c(=O)c1-c1ccc(N[C@H]2CCNC2)cc1` [Example 7.1, (S)-2-butyl-3-{4-[pyrrolidin-3-ylamino]phenyl}-4H-pyrido[1,2-a]pyrimidin-4-one hydrochloride] is at least 10 µM.
Consider `CCCCc1nc2ccccn2c(=O)c1-c1ccc(N[C@@H]2CCNC2)c(F)c1` [Example 7.2, (R)-2-butyl-3-{3-fluoro-4-[(pyrrolidin-3-ylamino]phenyl}-4H-pyrido[1,2-a]pyrimidin-4-one hydrochloride], for which the IC50 in data set [1] is at least 10 µM.
Still for that read-out and setting: the figure for `CCCCc1nc2ccccn2c(=O)c1-c1ccc(N[C@@H]2CCNC2)cc1C` [Example 7.3, (R)-2-butyl-3-{2-methyl-4-[pyrrolidin-3-ylamino]phenyl}-4H-pyrido[1,2-a]pyrimidin-4-one hydrochloride] is at least 10 µM.
Still for that read-out and setting: the figure for `CCCCc1nc2ccccn2c(=O)c1-c1cccc(NC2CCNC2)c1` (centres unmarked) [Example 7.4, 2-butyl-3-[3-(pyrrolidin-3-ylamino)phenyl]-4H-pyrido[1,2-a]pyrimidin-4-one hydrochloride] is at least 10 µM.
Same read-out and setting: for `CC(C)c1nc2ccccn2c(=O)c1-c1ccc(NC2CCNC2)cc1` (centres unmarked) [Example 7.5, 2-(1-methylethyl)-3-[4-(pyrrolidin-3-ylamino)phenyl]-4H-pyrido[1,2-a]pyrimidin-4-one hydrochloride] the value was at least 10 µM; for `CC(C)CCc1nc2ccccn2c(=O)c1-c1ccc(N[C@@H]2CCNC2)cc1` [Example 7.6, (R)-2-isopentyl-3-(4-(pyrrolidin-3-ylamino)phenyl)-4H-pyrido[1,2-a]pyrimidin-4-one hydrochloride], at least 10 µM; for `O=c1c(-c2ccc(N[C@@H]3CCNC3)cc2)c(CCC2CC2)nc2ccccn12` [Example 7.7, (R)-2-(2-cyclopropylethyl)-3-(4-(pyrrolidin-3-ylamino)phenyl)-4H-pyrido[1,2-a]pyrimidin-4-one hydrochloride], 0.1 to 1 µM.
Consider `CCCNc1nc2ccccn2c(=O)c1-c1ccc(NC2CCNC2)cc1` (centres unmarked) [Example 7.8, 2-(propylamino)-3-[4-(pyrrolidin-3-ylamino)phenyl]-4H-pyrido[1,2-a]pyrimidin-4-one hydrochloride], for which the 50% inhibitory concentration (IC50) in data set [1] was at least 10 µM.
On the same count and under the same terms, the figure for `CC(C)Nc1nc2ccccn2c(=O)c1-c1ccc(NC2CCNC2)cc1` (centres unmarked) [Example 7.9, 2-[(1-methylethyl)amino]-3-[4-(pyrrolidin-3-ylamino)phenyl]-4H-pyrido[1,2-a]pyrimidin-4-one hydrochloride] is at least 10 µM; for `CC(C)Nc1nc2ccccn2c(=O)c1-c1ccc(N[C@@H]2CCNC2)cc1` [Example 7.10, (R)-2-[(1-methylethyl)amino]-3-{4-[pyrrolidin-3-ylamino]phenyl}-4H-pyrido[1,2-a]pyrimidin-4-one hydrochloride] it is at least 10 µM; for `O=c1c(-c2ccc(N[C@@H]3CCNC3)cc2)c(N2CCCC2)nc2ccccn12` [Example 7.11, (R)-2-pyrrolidin-1-yl-3-{4-[pyrrolidin-3-ylamino]phenyl}-4H-pyrido[1,2-a]pyrimidin-4-one hydrogen chloride] it is at least 10 µM.
The same measure, in the same setting: the figure for `CCCCc1nc2ccccn2c(=O)c1-c1ccc2c(c1)CCN2C1CCNC1` (centres unmarked) [Example 7.12, 2-butyl-3-(1-(pyrrolidin-3-yl)indolin-5-yl)-4H-pyrido[1,2-a]pyrimidin-4-one hydrochloride] is at least 10 µM; for `CCCCc1nc2ccccn2c(=O)c1-c1ccc(N2CCNCC2)nc1` [Example 7.13, 2-butyl-3-(6-piperazin-1-ylpyridin-3-yl)-4H-pyrido[1,2-a]pyrimidin-4-one hydrochloride] it is at least 10 µM; for `COc1nc2ccccn2c(=O)c1-c1ccc(NC2CCNC2)cc1` (centres unmarked) [Example 9, 2-methoxy-3-[4-(pyrrolidin-3-ylamino)phenyl]-4H-pyrido[1,2-a]pyrimidin-4-one trifluoroacetate] it is at least 10 µM.
Same read-out and setting: the figure for `CCCOc1nc2ccccn2c(=O)c1-c1ccc(N[C@@H]2CCNC2)cc1` [Example 9.1, (R)-2-propoxy-3-(4-(pyrrolidin-3-ylamino)phenyl)-4H-pyrido[1,2-a]pyrimidin-4-one trifluoroacetate] is at least 10 µM; for `CCCCc1nc2ccccn2c(=O)c1-c1ccc(OS(=O)(=O)C(F)(F)F)cc1` [Example 12, 4-(2-butyl-4-oxo-4H-pyrido[1,2-a]pyrimidin-3-yl)phenyl trifluoromethanesulfonate] it is at least 10 µM; for `CCCCc1nc2ccc(Cl)cn2c(=O)c1-c1ccc(O)cc1` [Example 13, 2-butyl-7-chloro-3-(4-hydroxyphenyl)-4H-pyrido[1,2-a]pyrimidin-4-one] it is at least 10 µM.
For the molecule `CCCCc1nc2ccccn2c(=O)c1-c1ccc(O[C@@H]2CCNC2)cc1` [Example 15, (R)-2-butyl-3-{4-[pyrrolidin-3-yloxy]phenyl}-4H-pyrido[1,2-a]pyrimidin-4-one hydrochloride], the IC50 in data set [1] was at least 10 µM.
